Entries after “also recorded” stand apart in the source; their conditions may differ.
Experiments:
Format in all cases: cell-based, human
[1] = system: APOBEC3B promoter region; test: chromatin immunoprecipitation (ChIP) at the APOBEC3B promoter after PMA; conditions: MCF10A cells, PMA 25 ng/mL two hours, ChIP-qPCR
Method: We next performed a series of chromatin immunoprecipitation (ChIP) experiments to determine whether the canonical or noncanonical NFκB pathway is responsible for upregulating APOBEC3B. Primer sets were designed for each of the predicted NFκB binding sites near the APOBEC3B transcriptional start site, as well as a control set in the promoter region of NFKIB (FIG. 3E). ChIP was performed for RELA, RELB, RNA POL II (positive control), and isotype matched IgG (negative control) RELA, RELB, and RNA POL II were all bound to the NFKIB promoter following PMA treatment (FIG. 3F and FIG. 3G). In addition, we found RNA POL II strongly bound to the APOBEC3B gene near the transcriptional start site (FIG. 3F and FIG. 3G). We also found RELB bound both near the transcriptional start site and at sites 4 and 5, which are located in intron 2 and too close together to be distinguished by this procedure. Binding also may occur at lower levels at site 3 in intron 1, but the IgG signal was too high to distinguish background from actual binding. These ChIP data strongly implicate the noncanonical NFκB pathway, specifically RELB (and not RELA), in directly inducing APOBEC3B transcription in response to PMA activation of PKC.
MCF10A cells were treated with either DMSO or 25 ng/mL PMA for two hours. […]

[2] = system: APOBEC3B; test: APOBEC3B protein levels by immunoblotting after PMA; conditions: MCF10A cells
Method: (§1) APOBEC3B was induced with as little as 1 ng/mL PMA, and its induction was dose responsive and near maximal at 25 ng/mL PMA (FIG. 1B, histogram). APOBEC3B mRNA levels correlated with a rise in steady-state protein levels as measured by immunoblotting with a rabbit anti-APOBEC3B monoclonal antibody (described in U.S. Provisional Patent Application No. 62/186,109. filed Jun. 29, 2015) and with enzymatic activity as measured by a gel-based single-stranded DNA cytosine deamination assay (FIG. 1B). […] APOBEC3B protein and activity levels lagged shortly behind mRNA levels and persisted through the duration of the time course (FIG. 1C, immunoblot and polyacrylamide gel). APOBEC3B upregulation may be a direct result of signal transduction as the kinetics of upregulation were not affected by simultaneously treating cells with the protein translation inhibitor cyclohexamide (FIG. 1D).
(§2) The development and validation of the rabbit monoclonal antibody (mAb) against APOBEC3B is as described elsewhere (U.S. Provisional Patent Application No. 62/186,109, filed Jun. 29, 2015). The mAb used (referred to as 5210-87-13) effectively binds endogenous APOBEC3B in a variety of assays. The anti-tubulin antibody was obtained from Covance Inc., Princeton, N.J.

[3] = system: APOBEC3B; test: single-stranded DNA cytosine deaminase activity of whole cell extracts after PMA; conditions: MCF10A cell extracts
Method: as §1
Deaminase activity assays were performed as previously reported (Vieira et al., 2014, mBio 5(6):e02234-14). In short, 4 pmol of a fluorescently labeled oligo with a single target cytosine (5 -[…]-fluorescein, SEQ ID NO:2) was treated with cell extract containing 0.025 U/rxn UDG (New England BioLabs, Inc., Ipswich, Mass.), UDG buffer, and 1.75 U/rxn RNase A (Qiagen, Hilden, Germany) for two hours. […] Gels were scanned using a FujiFilm Image Reader FLA-7000.

[4] = system: APOBEC3B; test: PMA induction of APOBEC3B mRNA in MCF10A cells (RT-qPCR)
Method: (§3) A panel of immortalized normal human epithelial cells lines and breast cancer cell lines was treated with PMA or equal amounts of DMSO as a negative control, and previously validated reverse transcription quantitative PCR (RT-qPCR) assays were used to measure mRNA levels of all eleven human APOBEC family members. APOBEC3B mRNA was induced specifically by PMA treatment of several lines including the immortalized normal breast epithelial cell line MCF10A (FIG. 1A and FIG. 6). Under standard cell culture conditions, MCF10A expresses low levels of APOBEC3B and APOBEC3F, even lower levels of APOBEC3G and APOBEC3H, high levels of APOBEC3C, and undetectable levels of all other APOBEC family members.
as §1
(§4) For induction experiments, 2.5×10^5 cells were plated in a 6-well plate 1 day prior to drug treatment. PMA was then added to the media and incubated at 37° C. with 5% CO2 for six hours unless otherwise indicated. Cells were harvested, RNA was extracted, and RT-qPCR was performed as previously reported (Refsland et al. 2010, Nucleic Acids Res 38:4274-4284). For experiments utilizing inhibitors, cells were pretreated with inhibitors 30 minutes prior to PMA induction (25 ng/mL). PMA (Thermo Fisher Scientific, Inc., Waltham, Mass.), cyclohexamide (Acros Organics, Thermo Fisher Scientific, Inc., Waltham, Mass.), Gö6983 (Cayman Chemical co., Ann Arbor, Mich.), LY294002 (EMD Chemicals, Merck KGaA, Darmstadt, Germany), U0126 (EMD Chemicals, Merck KGaA, Darmstadt, Germany), AEB071 (Medchemexpress, Monmouth Junction, N.J.), Gö6976 (Enzo Life Sciences, Inc., Farmingdale, N.Y.), BAY 11-7082 (R&D Systems, INc., Minneapolis, Minn.), and MG132 (Thermo Fisher Scientific, Inc., Waltham, Mass.) were stored as recommended. NIKi/Compound 31 was synthesized as described (Li et al., 2013, Bioorganic & Medicinal Chemistry Letters 23:1238-1244).

[5] = system: PKCα (PRKCA); test: RNA-seq of PKC isoform mRNA in MCF10A cells treated with PMA; conditions: PMA vs vehicle
From the text: PKCα mRNA levels were unchanged by PMA treatment, consistent with a mechanism by which PMA signals through pre-existing PKCα to ultimately stimulate APOBEC3B transcription (FIG. 2G). PKCα expression was depleted using three independent shRNA-encoding lentiviral constructs. […] Immunoblots confirmed PKCα knockdown and proportional reductions in APOBEC3B (FIG. 21). Altogether, the pharmacologic and genetic approaches provide a strong case for PKCα as the predominant PKC isoform driving PMA-mediated upregulation of APOBEC3B.
(§5) Two sets of MCF10A cells in duplicate were treated every eight hours with media supplemented with PMA or DMSO for 48 hours. At 48 hours, RNA was extracted using an RNeasy Mini Kit (Qiagen, Hilden, Germany). Total RNA was submitted to the University of Minnesota Genomics Center for sequencing on the Illumina HiSeq 2000 platform. Raw reads were analyzed using both DESeq2 (Love et al., 2014, Genome Biol. 15:550) and the Tuxedo suite (Trapnell et al., 2012, Nat Protoc.7:562-578) to identify changes in mRNA expression in PMA treated versus untreated cells.

[6] = system: RELA, NKB1, RELB and NFKB2; test: RNA-seq of NFκB subunit mRNA in MCF10A cells treated with PMA; conditions: PMA vs vehicle
Method: Canonical signaling is known to require IKKβ, whereas non-canonical NFκB signaling is strictly dependent on IKKα-catalyzed phosphorylation of p100. To distinguish between these pathways, MCF10A cells were pretreated with a titration of TPCA-1 concentrations spanning the IC50 values of both proteins, and then PMA was used to induce APOBEC3B upregulation. […] As an additional control, TNFα, which is regulated by the canonical pathway, was analyzed.
as §5

[7] = system: APOBEC family members; test: mRNA levels of other APOBEC family members after PMA (RT-qPCR); conditions: MCF10A cells, six hours
Method: as §3
For induction experiments, 2.5×10^5 cells were plated in a 6-well plate 1 day prior to drug treatment. PMA was then added to the media and incubated at 37° C. with 5% CO2 for six hours unless otherwise indicated. Cells were harvested, RNA was extracted, and RT-qPCR was performed as previously reported (Refsland et al. 2010, Nucleic Acids Res 38:4274-4284). For experiments utilizing inhibitors, cells were pretreated with inhibitors 30 minutes prior to PMA induction (25 ng/mL). […]

[8] = system: cancer cell lines; test: cell cycle and cell viability of cancer cell lines treated with AEB071; conditions: 10 μM, 48 hours, data not shown
[9] = system: APOBEC3B; test: inhibitor pretreatment before PMA-induced APOBEC3B upregulation in MCF10A cells (RT-qPCR)
Method: PMA is a well-known agonist of PKC, but it also affects other cellular processes. To determine whether APOBEC3B induction by PMA occurs through PKC signal transduction or an alternative mechanism, we leveraged a panel of existing PKC inhibitors that each vary with respect to class selectivity. MCF10A cells were pre-treated for 30 minutes with varying concentrations of the pan-PKC inhibitor Gö6983 (Gschwendt et al., FEBS Lett. 392:77-80, 1996) and then treated for six hours with PMA (25 ng/mL). […] As additional controls, MCF10A cells were pretreated in parallel with the phosphoinositol 3 kinase (PI3K) inhibitor, LY294002, and the mitogen-activated protein kinase kinase (MEK) inhibitor, U0126, prior to PMA induction (FIGS. 2B and 2C).
as §4

[10] = system: APOBEC3B; test: endogenous APOBEC3B mRNA in cancer cell lines treated with AEB071 (RT-qPCR); conditions: 10 μM, 48 hours
Method: FIG. 4. The PKC-NFκB pathway drives endogenous APOBEC3B expression in cancer cells. (A) APOBEC3B mRNA levels in representative breast, ovarian, and head/neck cancer cell lines. mRNA expression is reported as the mean of three independent RT-qPCR reactions normalized to TBP (error bars report SD from triplicate assays). (B) Representative PKC inhibitor treated cancer cell line experiment. Each line was treated with AEB071 (10 μM) or vehicle control for 48 hours prior to analysis. The histogram reports APOBEC3B mRNA levels normalized to the vehicle treated control for each line.
Four breast cancer cell lines, four ovarian cancer cell lines, four bladder cancer cell lines, and four head/neck cancer cell lines were analyzed to determine whether the constitutively high levels of endogenous APOBEC3B observed in many human cancer cell lines occurs through the PKC pathway. The selected cell lines expressed a 10-fold range of endogenous APOBEC3B mRNA levels (FIG. 4A).
(§6) Each line was treated for 48 hours with 10 μM AEB071, and then APOBEC3B mRNA and protein levels were quantified by RT-qPCR and immunoblotting. […] This is important since higher concentrations of AEB071 are known to cause cell cycle perturbations and apoptosis in certain cell types.

[11] = system: APOBEC3B; test: endogenous APOBEC3B protein in cancer cell lines treated with AEB071 (immunoblot); conditions: 10 μM, 48 hours
Method: as §6, §2

## CCCCCCCCCCCCCC(=O)O[C@@H]1[C@@H](C)[C@@]2(O)[C@@H](C=C(CO)C[C@]3(O)C(=O)C(C)=C[C@@H]23)[C@@H]2C(C)(C)[C@]12OC(C)=O [PMA]
[1]
  recruitment of RELB and p105/p52 to the APOBEC3B promoter region: specifically and robustly recruited
[2]
  APOBEC3B protein levels: dose-responsive increases
[3]
  APOBEC3B activity levels (DNA cytosine deaminase): dose-responsive increases
[4]; PMA 25 ng/ml
  time after PMA treatment at which maximal APOBEC3B mRNA levels were observed: by three hours post-treatment
  time after PMA treatment at which significant APOBEC3B mRNA induction was detected: 30 min
[4]; six hours
  PMA concentration at which APOBEC3B induction was near maximal: 25 ng/mL
  lowest PMA concentration that induced APOBEC3B: 1 ng/mL
[5]
  PKCα mRNA levels: unchanged
[6]
  mRNA levels of NFκB components RELA, NKB1, RELB, NFKB2: unaffected
[7]
  changes in the expression levels of other APOBEC family members: no detectable changes

## CN1CCN(c2nc(C3=C(c4c[nH]c5ccccc45)C(=O)NC3=O)c3ccccc3n2)CC1 [AEB071, sotrastaurin]
[8]
  effects on the cell cycle or cell viability: No effects on the cell cycle or cell viability
[9]
  potency relative to Gö6983, BIM-1, or Gö6983 in suppressing PMA-induced APOBEC3B: approximately 10 fold
[9]; 30-minute pretreatment with inhibitor, then PMA 25 ng/mL six hours
  suppression of PMA-induced APOBEC3B mRNA induction: inhibited; also recorded: clear dose dependent response
[9]; pretreatment, PMA induced
  concentration that caused complete suppression of APOBEC3B expression: 500 nM
[10]; 16 breast, ovarian, bladder, head/neck cancer cell lines
  cell lines in which APOBEC3B mRNA levels were reduced by more than half: 7/16
[10]; HCC1806 breast cancer cell line
  APOBEC3B mRNA levels: reduced by more than half
[10]; JSQ3 head/neck line
  APOBEC3B mRNA levels: reduced by more than half
[10]; MDA-MB-453 breast cancer cell line
  APOBEC3B mRNA levels: reduced by more than half
[10]; MDA-MB-468 breast cancer cell line
  APOBEC3B mRNA levels: reduced by more than half
[10]; OVCAR5 ovarian cancer cell line
  APOBEC3B mRNA levels: reduced by more than half
[10]; SQ-20B head/neck line
  APOBEC3B mRNA levels: reduced by more than half
[10]; TR146 head/neck line
  APOBEC3B mRNA levels: reduced by more than half
[11]
  changes of APOBEC3B protein levels: largely mirrored the mRNA results

Source: US20180185302A1, “METHODS FOR DOWNREGULATING APOBEC3B” (Regents of the University of Minnesota, priority 2015, published 2018)
